Assay results from the supplement of paper PMC6045584.
± gives the standard deviation of the averaged measurements.

How the values were obtained:
[1] = compound: CCc1cc(Nc2nccc(-c3c(-c4ccc(OC)c(C(=O)Nc5c(F)cccc5F)c4)nc4ccccn34)n2)c(OC)cc1N1CCC(N2CCN(S(C)(=O)=O)CC2)CC1; assay: surviving fraction relative to DMSO-only wells; higher = less growth inhibition; details: exposure time: 5 days
How it was run: (§1)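 Inhibitors at 0.5, 1, 5, 10, 50, 100, 500 and 1000 nM were applied continuously for five days to tumour cell lines seeded in log phase at 250–500 cells per well in 384-well plates 24 hours earlier. Viability was measured by CellTiter-Glo luminescence and expressed as surviving fraction relative to the median of DMSO-only wells. Luminescence was taken after 10 minutes at room temperature.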

MK-1775 = compound: C=CCn1c(=O)c2cnc(Nc3ccc(N4CCN(C)CC4)cc3)nc2n1-c1cccc(C(C)(C)O)n1 [MK-1775]; assay: as above; details: exposure time: 5 days
How it was run: as §1

Test System	surviving fraction ([1]; 0.5 nM)	surviving fraction ([1]; 1 nM)	surviving fraction ([1]; 5 nM)	surviving fraction ([1]; 10 nM)	surviving fraction ([1]; 50 nM)	surviving fraction ([1]; 100 nM)	surviving fraction ([1]; 500 nM)	surviving fraction ([1]; 1000 nM)	surviving fraction (MK-1775; 0.5 nM)	surviving fraction (MK-1775; 1 nM)	surviving fraction (MK-1775; 5 nM)	surviving fraction (MK-1775; 10 nM)	surviving fraction (MK-1775; 50 nM)	surviving fraction (MK-1775; 100 nM)	surviving fraction (MK-1775; 500 nM)	surviving fraction (MK-1775; 1000 nM)
HCC1395 BREAST	0.903 ± 0.1	0.903 ± 0.17	0.965 ± 0.24	0.916 ± 0.037	1.13 ± 0.2	0.831 ± 0.19	0.855 ± 0.22	0.934 ± 0.17	0.885 ± 0.071	1.169 ± 0.0022	1.03 ± 0.2	1.14 ± 0.12	0.935 ± 0.1	0.931 ± 0.12	0.741 ± 0.11	0.618 ± 0.083
HCC1806 BREAST	1.05 ± 0.032	0.985 ± 0.042	1.04 ± 0.025	1.05 ± 0.1	0.993 ± 0.1	1.03 ± 0.13	0.93 ± 0.13	0.904 ± 0.085	1.05 ± 0.047	0.996 ± 0.076	1.13 ± 0.032	1.02 ± 0.14	0.631 ± 0.082	0.303 ± 0.036	0.049 ± 0.0061	0.0403 ± 0.0015
HCC1954 BREAST	0.996 ± 0.012	0.821 ± 0.02	0.904 ± 0.12	1.1 ± 0.052	0.982 ± 0.06	1 ± 0.1	0.913 ± 0.11	0.638 ± 0.068	0.762 ± 0.1	0.775 ± 0.012	1.08 ± 0.13	0.8722 ± 0.0025	0.719 ± 0.017	0.625 ± 0.0078	0.203 ± 0.013	0.102 ± 0.0042
HCT15 LARGE INTESTINE	0.963 ± 0.028	0.995 ± 0.028	0.99 ± 0.027	1.03 ± 0.03	1 ± 0.02	1.05 ± 0.016	1.12 ± 0.036	1.06 ± 0.017	1.033 ± 0.0098	1.02 ± 0.032	1 ± 0.037	1.02 ± 0.035	1.05 ± 0.037	1 ± 0.05	0.521 ± 0.087	0.121 ± 0.0021
HELA CERVIX	1.05 ± 0.035	1.07 ± 0.04	1.08 ± 0.027	1.09 ± 0.041	1.05 ± 0.05	1.07 ± 0.025	1.01 ± 0.066	0.97 ± 0.026	1.04 ± 0.025	1.07 ± 0.045	1.02 ± 0.064	0.993 ± 0.059	1.15 ± 0.039	1.113 ± 0.0066	0.0972 ± 0.0083	0.0538 ± 0.0035
HOS BONE	1.008 ± 0.004	1.028 ± 0.0032	1.06 ± 0.018	1.05 ± 0.028	1.06 ± 0.026	1.047 ± 0.0083	0.956 ± 0.017	0.89 ± 0.014	1.02 ± 0.017	1.02 ± 0.011	1.05 ± 0.039	1.03 ± 0.027	1.027 ± 0.0056	0.98 ± 0.028	0.15 ± 0.019	0.065 ± 0.0027
HOSMNG BONE	0.956 ± 0.057	0.9987 ± 0.0055	0.989 ± 0.024	1.02 ± 0.086	1 ± 0.051	1.05 ± 0.087	1.05 ± 0.061	1.05 ± 0.057	1.04 ± 0.027	0.978 ± 0.061	0.935 ± 0.091	0.977 ± 0.11	1.01 ± 0.072	1.07 ± 0.063	0.143 ± 0.013	0.059 ± 0.0076
HSSYII SYNOVIAL	0.917 ± 0.021	0.933 ± 0.033	1.01 ± 0.047	0.951 ± 0.045	0.915 ± 0.043	0.958 ± 0.037	0.899 ± 0.034	0.798 ± 0.021	1.05 ± 0.034	1 ± 0.03	1.002 ± 0.0055	0.884 ± 0.012	0.628 ± 0.035	0.12 ± 0.0027	0.147 ± 0.064	0.0442 ± 0.0045
HT1080 SOFT TISSUE	1.05 ± 0.037	1.05 ± 0.023	1.02 ± 0.0067	1.03 ± 0.031	1.05 ± 0.024	1.02 ± 0.038	0.9943 ± 0.0058	0.946 ± 0.034	1.02 ± 0.03	1.01 ± 0.017	0.992 ± 0.019	1.02 ± 0.023	0.638 ± 0.025	0.277 ± 0.012	0.113 ± 0.015	0.091 ± 0.0089
HU09 BONE	0.897 ± 0.047	0.949 ± 0.12	1.08 ± 0.16	1.06 ± 0.032	1.03 ± 0.063	1.1 ± 0.048	0.88 ± 0.052	0.872 ± 0.085	1.02 ± 0.088	0.916 ± 0.096	1.009 ± 0.01	0.99 ± 0.049	0.831 ± 0.14	0.518 ± 0.045	0.06 ± 0.005	0.0393 ± 0.0049
HUO3N1 BONE	0.94 ± 0.044	0.986 ± 0.032	1 ± 0.028	1.05 ± 0.06	1.01 ± 0.011	0.995 ± 0.052	0.947 ± 0.031	0.908 ± 0.024	0.979 ± 0.036	0.941 ± 0.032	1 ± 0.034	1.01 ± 0.039	0.995 ± 0.02	0.843 ± 0.041	0.348 ± 0.014	0.204 ± 0.015
JIMT1 BREAST	0.977 ± 0.04	1.01 ± 0.014	1.01 ± 0.011	1.02 ± 0.017	0.992 ± 0.032	1.04 ± 0.027	1 ± 0.031	0.986 ± 0.032	1.02 ± 0.021	0.987 ± 0.016	0.989 ± 0.01	0.991 ± 0.012	0.4405 ± 0.0039	0.227 ± 0.0077	0.0768 ± 0.0097	0.0532 ± 0.0013
JURKAT HAEMATOPOIETIC AND LYMPHOID TISSUE	1.06 ± 0.011	1.07 ± 0.029	1.06 ± 0.027	1.07 ± 0.021	1.05 ± 0.022	1.01 ± 0.029	0.973 ± 0.034	0.886 ± 0.037	1.09 ± 0.017	1.11 ± 0.016	1.08 ± 0.019	1.099 ± 0.0087	0.986 ± 0.038	0.772 ± 0.036	0.039 ± 0.001	0.039
KPD BONE	0.907 ± 0.066	0.947 ± 0.071	1 ± 0.021	1.03 ± 0.062	0.989 ± 0.021	1.049 ± 0.0079	0.89 ± 0.081	0.849 ± 0.036	0.945 ± 0.12	0.91 ± 0.02	0.971 ± 0.029	0.949 ± 0.031	0.954 ± 0.034	0.808 ± 0.039	0.293 ± 0.0046	0.175 ± 0.009
LM7 BONE	0.918 ± 0.051	0.885 ± 0.043	0.997 ± 0.08	0.97 ± 0.074	1.1 ± 0.11	1.01 ± 0.081	0.898 ± 0.013	0.758 ± 0.03	0.957 ± 0.1	0.947 ± 0.065	0.999 ± 0.12	0.982 ± 0.15	0.751 ± 0.013	0.506 ± 0.032	0.146 ± 0.016	0.0563 ± 0.0015
LNCAP PROSTATE	0.88 ± 0.064	0.964 ± 0.16	0.996 ± 0.08	0.849 ± 0.096	0.895 ± 0.15	0.93 ± 0.19	0.882 ± 0.063	0.632 ± 0.1	0.99 ± 0.088	0.951 ± 0.14	0.995 ± 0.082	0.921 ± 0.14	0.984 ± 0.065	0.544 ± 0.073	0.161 ± 0.012	0.0767 ± 0.013
MCF7 BREAST	0.857 ± 0.036	0.905 ± 0.05	0.8677 ± 0.0068	0.874 ± 0.059	0.876 ± 0.013	0.897 ± 0.05	0.844 ± 0.027	0.769 ± 0.027	0.886 ± 0.021	0.894 ± 0.013	0.864 ± 0.0098	0.873 ± 0.042	0.869 ± 0.052	0.856 ± 0.028	0.736 ± 0.014	0.602 ± 0.035
MDAMB134 BREAST	1.21 ± 0.028	1.02 ± 0.034	0.988 ± 0.11	1.05 ± 0.13	1.03 ± 0.27	0.906 ± 0.12	0.882 ± 0.16	0.996 ± 0.18	1.11 ± 0.1	1.02 ± 0.086	1.17 ± 0.039	1.075 ± 0.0064	1.08 ± 0.064	0.994 ± 0.047	0.752 ± 0.035	0.733 ± 0.0099
MDAMB157 BREAST	0.834 ± 0.049	0.96 ± 0.15	0.973 ± 0.12	0.996 ± 0.052	0.934 ± 0.058	1.04 ± 0.094	0.94 ± 0.06	0.982 ± 0.14	0.835 ± 0.1	0.95 ± 0.075	0.94 ± 0.075	0.966 ± 0.096	0.522 ± 0.045	0.278 ± 0.067	0.0617 ± 0.015	0.0613 ± 0.0072
MDAMB231 BREAST	0.973 ± 0.025	1 ± 0.03	1.01 ± 0.033	1.03 ± 0.017	0.962 ± 0.024	1 ± 0.019	0.906 ± 0.022	0.875 ± 0.018	1.01 ± 0.034	1 ± 0.037	1 ± 0.026	1 ± 0.04	1.01 ± 0.043	0.778 ± 0.028	0.155 ± 0.0079	0.146 ± 0.0047
MDAMB361 BREAST	0.885 ± 0.088	0.947 ± 0.053	1.04 ± 0.051	0.887 ± 0.052	0.879 ± 0.044	0.998 ± 0.045	0.826 ± 0.041	0.726 ± 0.064	0.862 ± 0.075	0.805 ± 0.039	0.875 ± 0.053	0.79 ± 0.053	0.68 ± 0.066	0.549 ± 0.047	0.478 ± 0.014	0.459 ± 0.015
